Experimental data taken from patent US20200239530A1, “COMPOUNDS AND METHODS OF MODULATING PROTEIN DEGRADATION” (Vividion Therapeutics, Inc., priority 2017, published 2020).

Assays:
Assay in all cases: Cysteine liganding, probe competition
Assay type in all cases: binding
[1] = molecular target: T1, HMOX2 Heme oxygenase 2 (Homo sapiens, UniProt P30519); conditions: for Liganded: HMOX2 Res# 265, uniprot P30519
T1 construct: Cells were resuspended in cold PBS on ice and sonicated with a probe sonicator to achieve lysis; endogenous in cells
T1 sequence (P30519 1-316): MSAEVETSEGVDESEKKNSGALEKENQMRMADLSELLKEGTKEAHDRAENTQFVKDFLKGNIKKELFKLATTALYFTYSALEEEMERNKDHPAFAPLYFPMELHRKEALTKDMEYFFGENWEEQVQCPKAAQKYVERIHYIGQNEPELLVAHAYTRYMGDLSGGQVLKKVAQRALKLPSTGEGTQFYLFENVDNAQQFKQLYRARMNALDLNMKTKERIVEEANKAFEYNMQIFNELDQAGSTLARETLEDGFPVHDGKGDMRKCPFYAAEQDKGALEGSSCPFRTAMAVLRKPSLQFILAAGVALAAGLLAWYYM
Method in brief: (§1)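 Lysates from probe-sonicated cells in PBS (5 mg/ml proteome) were exposed to compound for 1 hr at 25° C, then labelled with desthiobiotin iodoacetamide probe (10 mM stock) for 1 hr at 25° C. Probe-tagged peptides were streptavidin-enriched after trypsin digestion.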

[2] = molecular target: T2, RNF214 RING finger protein 214 (Homo sapiens, UniProt Q8ND24); conditions: for Liganded: RNF214 Res# 655, uniprot Q8ND24
T2 construct: Cells were resuspended in cold PBS on ice and sonicated with a probe sonicator to achieve lysis; endogenous in cells
T2 sequence (Q8ND24 whole entry): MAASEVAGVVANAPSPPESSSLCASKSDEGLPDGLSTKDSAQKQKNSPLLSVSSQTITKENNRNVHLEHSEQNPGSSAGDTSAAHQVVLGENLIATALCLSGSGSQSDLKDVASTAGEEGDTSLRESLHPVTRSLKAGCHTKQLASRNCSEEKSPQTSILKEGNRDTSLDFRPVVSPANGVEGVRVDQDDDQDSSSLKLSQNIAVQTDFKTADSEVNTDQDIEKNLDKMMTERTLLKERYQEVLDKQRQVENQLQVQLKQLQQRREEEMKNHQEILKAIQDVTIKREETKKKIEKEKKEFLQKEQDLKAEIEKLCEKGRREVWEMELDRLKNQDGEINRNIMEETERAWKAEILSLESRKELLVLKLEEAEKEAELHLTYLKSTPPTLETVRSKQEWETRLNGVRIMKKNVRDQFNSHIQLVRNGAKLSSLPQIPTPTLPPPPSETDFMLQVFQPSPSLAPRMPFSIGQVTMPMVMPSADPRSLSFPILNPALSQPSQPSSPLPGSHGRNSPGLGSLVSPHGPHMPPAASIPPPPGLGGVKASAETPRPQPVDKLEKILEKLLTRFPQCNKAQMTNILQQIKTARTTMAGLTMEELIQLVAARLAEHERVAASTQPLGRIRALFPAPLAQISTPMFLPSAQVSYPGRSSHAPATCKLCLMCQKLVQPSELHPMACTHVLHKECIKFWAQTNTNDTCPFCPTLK
Method in brief: as §1

[3] = molecular target: T3, RRP1B Ribosomal RNA processing protein 1 homolog B (Homo sapiens, UniProt Q14684)
T3 construct: Cells were resuspended in cold PBS on ice and sonicated with a probe sonicator to achieve lysis; endogenous in cells
T3 sequence (Q14684 1-758): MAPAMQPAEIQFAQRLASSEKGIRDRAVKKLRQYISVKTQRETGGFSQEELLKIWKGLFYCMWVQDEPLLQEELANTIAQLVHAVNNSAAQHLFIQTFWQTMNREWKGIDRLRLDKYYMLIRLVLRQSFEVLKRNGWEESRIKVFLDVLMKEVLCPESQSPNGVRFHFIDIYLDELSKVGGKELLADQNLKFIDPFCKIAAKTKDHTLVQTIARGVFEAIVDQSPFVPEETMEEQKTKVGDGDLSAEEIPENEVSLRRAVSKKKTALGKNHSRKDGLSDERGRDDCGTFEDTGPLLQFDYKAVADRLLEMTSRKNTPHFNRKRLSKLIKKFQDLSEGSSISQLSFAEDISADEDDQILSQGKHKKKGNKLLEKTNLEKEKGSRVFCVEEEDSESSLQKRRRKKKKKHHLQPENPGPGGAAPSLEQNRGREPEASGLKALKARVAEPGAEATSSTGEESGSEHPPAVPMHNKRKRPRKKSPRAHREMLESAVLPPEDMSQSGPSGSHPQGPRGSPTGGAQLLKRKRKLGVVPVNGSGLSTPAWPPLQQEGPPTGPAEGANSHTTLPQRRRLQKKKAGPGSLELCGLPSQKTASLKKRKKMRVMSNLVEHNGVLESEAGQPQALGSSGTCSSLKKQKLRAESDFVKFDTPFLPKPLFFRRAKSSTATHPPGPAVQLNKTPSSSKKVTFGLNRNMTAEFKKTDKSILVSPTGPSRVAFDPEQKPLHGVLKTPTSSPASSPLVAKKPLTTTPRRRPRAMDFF
Method in brief: as §1

[4] = molecular target: T4, TUBA3D Tubulin alpha-3C/D chain (Homo sapiens, UniProt P0DPH8)
T4 construct: Cells were resuspended in cold PBS on ice and sonicated with a probe sonicator to achieve lysis; endogenous in cells
T4 sequence (P0DPH8 whole entry, looked up): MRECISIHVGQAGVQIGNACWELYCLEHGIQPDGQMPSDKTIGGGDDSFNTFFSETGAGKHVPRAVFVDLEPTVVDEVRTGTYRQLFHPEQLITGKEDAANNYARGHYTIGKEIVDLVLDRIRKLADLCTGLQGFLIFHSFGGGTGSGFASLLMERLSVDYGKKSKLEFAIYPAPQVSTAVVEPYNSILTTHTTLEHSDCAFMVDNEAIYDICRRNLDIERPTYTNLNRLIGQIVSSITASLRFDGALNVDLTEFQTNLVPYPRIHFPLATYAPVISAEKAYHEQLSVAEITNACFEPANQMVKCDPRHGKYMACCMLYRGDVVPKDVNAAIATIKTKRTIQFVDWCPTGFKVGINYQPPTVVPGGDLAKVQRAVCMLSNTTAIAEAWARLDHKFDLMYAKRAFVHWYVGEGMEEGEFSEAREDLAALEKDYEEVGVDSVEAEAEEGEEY
Method in brief: as §1

SMILES | Liganded [1] | Liganded [2] | Liganded ([3]; RRP1B Res# 155, uniprot Q14684) | Liganded ([4]; TUBA3D Res# 4, uniprot Q13748) | Liganded ([4]; TUBA3D Res# 20, uniprot Q13748) | 100 Max ([1]; uniprot P30519) | 100 ave ([1]; uniprot P30519) | 500 ave ([1]; uniprot P30519) | 500 Max ([1]; uniprot P30519, in % (unit assumed)) | 100 ave ([2]; uniprot Q8ND24) | 500 Max ([2]; uniprot Q8ND24) | 500 ave ([2]; uniprot Q8ND24) | 100 Max ([2]; uniprot Q8ND24, unit assumed) [%] | 100 Max ([3]; uniprot Q14684) | 100 ave ([3]; uniprot Q14684) | 500 Max ([3]; uniprot Q14684) | 500 ave ([3]; uniprot Q14684)
COc1ccc2c(c1)CCCN2C(=O)CCl [KB02] | YES | YES | YES | YES | YES |  |  |  |  |  |  |  |  |  |  |  | 
O=C(CCl)Nc1cc(C(F)(F)F)cc(C(F)(F)F)c1 [KBO3] | YES | YES |  | YES | YES | 93.81 | 81.435 | 88.6 | 98.54 | 24.8 | 96.4 | 65.9 | 35.5 | 27.08 | 18.31 | 70.79 | 66.05
